Columns and labels:
[1] = test system: Human follicle papilla cells; experiment: Functional stability across pH and temperature (follicle papilla cell proliferation); format: cell-based; settings: pre-treated 7 days in pH-adjusted water at varying temperatures; cells dosed 5 μg/mL, 48 hr
Experimental: FIGS. 7A and 7B show normalized proliferation follicle papilla cell proliferation after 48 hr following treatment with the exemplary compound (VII-3) pre-treated across a range of pH conditions (FIG. 7A) and temperature conditions (FIG. 7B). Data represents mean±s.d. and representative of n=2 donors.
An exemplary compound (VII-3) was prepared in various solvents (DMSO; dimethyl sulfoxide, DMI; dimethyl isosorbide, or a 1:1 mixture of dimethyl isosorbide and ethanol), the diluted in pH-adjusted water and left at varying temperatures for 7 days. Human follicle papilla cells were dosed at 5 μg/mL with the exemplary compound and further supplemented with 6-bromoindirubin-39-Oxime (BIO), recombinant bone morphogenetic protein-2 (BMP-2), and basic fibroblast growth factor (FGFβ), whose combination was previously found to preserve in vivo dermal papilla gene signatures. Normalized proliferation follicle papilla cell proliferation was analyzed after 48 hr following the treatment with the exemplary compound pre-treated across a range of pH conditions (FIG. 7A) and temperature conditions (FIG. 7B). Data represents mean±s.d. and representative of n=2 donors.

HepG2 cells = experiment: Caspase 3/7 activity in HepG2 cells; format: cell-based; settings: HepG2, >2-log concentration range
Experimental: (§1) Cells were treated with either the exemplary compounds or vehicle control containing correspondingly % v/v-matched amounts of DMSO spanning a >2-log concentration range. Data represents mean±s.d. and representative of at least 2 experimental replicates.
as §1, with “HepG2 cells are an immortalized liver cell line commonly used to study apoptosis induced by small molecules. Cells” for “Cells”

bacteria = experiment: SOS chromotest (β-galactosidase activity); format: cell-based; settings: varying concentrations; 4-NQ as known genotoxin
Experimental: The SOS chromotest is a well-established bacteria-based test for genotoxicity.
The safety/toxicology profiles of a compound or salt of the present disclosure was evaluated via a series of in vitro genotoxicity assays, including the SOS-chromotest to determine bacterial genotoxicity, and the TK.6 micronucleus assay to determine chromosomal damage and forward mutations. Standard reactive oxygen species (ROS) and caspase 3/7 assay were conducted to determine general cellular toxicity. Moreover, a series of sensitization tests were conducted to predict any potential skin sensitivity. These include the direct peptide reactivity assay to evaluate haptenization, the KeratinoSens reporter assay to determine potential sensitivity via the activation of a cytoprotective pathway, and an immunological assay using human immature monocyte-derived dendritic cells to evaluate any potential immunogenicity.

female subjects = experiment: Clinical consumer perception study; format: in vivo, human; settings: 0.02% v/v water-based formula every 2 days, 6 weeks, 32 subjects completed
Experimental: Photographs were taken after 6 weeks. Subjects were female and ranged in age from 27-65 years. Subjects used a simple, water-based formula containing an exemplary compound (at 0.02% v/v) every 2 days in the morning or night on dry or towel-dried hair. Approximately 2 mL was applied directly to the hairline. No randomization was required for the study and subjects were blinded to the name of the test material.
The clinical test was performed by Eurofins|CRL, Inc. The test followed established, standardized procedures for clinical testing designed to ensure the well-being of clinical study subjects and the generation of reliable study data. Subjects were female and ranged in age from 27-65 years. Subjects used a simple, water-based formula containing a exemplary compound, VII-3 (at 0.02% v/v) every 2 days in the morning or night on dry or towel-dried hair. Approximately 2 mL was applied directly to the hairline. No randomization was required for the study and subjects were blinded to the name of the test material.
Photographs of subjects' hair were taken 6 weeks after the treatment with the representative compounds (FIG. 6). Subjects were female and ranged in age from 27-65 years. Subjects used a simple, water-based formula containing an exemplary compound VII-3 (at 0.02% v/v) every 2 days in the morning or night on dry or towel-dried hair. […]

CSc1nc(-c2ccco2)nn1S(C)(=O)=O [VII-3, 1H-1,2,4-Triazole, 3-(2-furanyl)-1-(methylsulfonyl)-5-(methylthio)-]
functional stability (normalized follicle papilla cell proliferation after pre-treatment) [1]: functionally stable across physiologically-relevant pH and temperature ranges | normalized caspase 3/7 activity (HepG2 cells): did not exhibit any caspase activation | genotoxic effects, normalized β-galactosidase activity (bacteria): did not exhibit any genotoxic effects | Adverse effects (female subjects): 0/32 (0%)

Source: US12527794B2, “Compositions, formulations, and methods for hair treatment” (Oddity Labs, LLC, priority 2021, dated 2026)
